Assay results published in paper PMC10786692 (The Journal of Clinical Investigation, 2024).
Several values for one entry are separate records, joined by “and”; a condition that tells them apart may be missing. Equal values may be shown once.

Tests used:
plasma cytokines = test: Plasma cytokines, Bio-Plex Pro 27-plex; type: in vivo, human; details: after 2 weeks of treatment
Experimental: DNA-Seq of tumor and matched buffy coats was either by whole-exome sequencing or a custom-designed panel targeting all exons of genes of interest for 173 genes, including potential markers of sensitivity to ATRi. ACK-lysed whole blood or PBMCs were stained for flow cytometry using 8 multicolor panels. Plasma cytokines were assessed using the Bio-Plex Pro 27-Plex Panel (Bio-Rad). See Supplemental Methods for full information.
Plasma was taken from EDTA tubes (BD vacutainer) used for buffy coat or immune profiling samples. Plasma was removed, re-spun and aliquoted into 1.5 mL tubes and stored at -70 OC until analysis. Samples were run in duplicate using the Bio-Plex Pro Human Cytokine 27-plex panel (Bio-Rad) as per manufacturer’s instructions.
Criteria for Dose Limiting Toxicity
1. Hematological toxicity
1. Grade 3 thrombocytopenia with bleeding
2. Grade 4 thrombocytopenia
3. Grade 4 neutropenia lasting >7 days in the absence of growth factor
4. Grade 4 neutropenia of any duration accompanied by fever ≥ 38.5°C and/or systemic infection
5. Any other grade ≥4 hematological toxicity
2. Cardiovascular toxicity
1. Clinically significant hypotension defined as an asymptomatic fall in systolic blood pressure more than 20mmHg to below 70mmHg persisting for at least 10 minutes
2. Symptomatic orthostatic fall in systolic blood pressure of more than 20mmHg compared to resting supine blood pressure
3. Prolongation of QTc >0.5 seconds (using an appropriate correction […]
3. Gastrointestinal/hepatic toxicity
1. ALT or AST >5 times ULN; ALP >5 times ULN with elevated gamma- GT

ATR = details: preclinical; cited from earlier work
tumor biopsies = test: CIBERSORTx cell-type deconvolution of tumor biopsy RNA-Seq; type: in vivo, human; details: individual patients
Experimental: signatures for heatmap construction were used from MSigDB (49) and cell-type-related
transcripts from NanoString annotations and Bindea et al (50). Cell-type deconvolution was
performed using CIBERSORTx (51). […]

[1] = Plasma pharmacokinetics of ceralasertib (HPLC-MS/MS, NCA); type: in vivo, human
Experimental: Intensive PK sampling in part A occurred after a single dose from predose up to 24 to 72 hours and again at day 15 and day 29 of continuous dosing. Participants fasted for 1 hour before and 2 hours after dosing for PK assessment. In part B, sampling coincided with day 15 PD assessments. Full details are given in Supplemental Methods. […]
Evaluated PK […]
maximum observed plasma concentration (Cmax), time to Cmax (tmax), and apparent terminal half-life (t1/2) calculated as ln/lambda-z where lambda-z (lz) is the apparent terminal phase rate- […]
constant estimated by linear regression of logarithmically-transformed concentration-versus-time data. A minimum of three data points were used in calculating lz as per AstraZeneca standard operating procedures. Data from multiple dosing were used to derive accumulation ratios based on Cmax (Race Cmax) and AUC(0-8) (Rac AUC0-8) defined as the ratio between Cmax or AUC(0-8) after multiple dose and Cmax and AUC(0-8) at day 1. All PK parameters for […]
WinNonLin v8.3 software or higher where the ‘linear up/log down trapezoidal rule’ for AUC was […]
applied. […]

For `C[C@@H]1COCCN1c1cc(C2([S@](C)(=N)=O)CC2)nc(-c2cc[nH]c3nccc2-3)n1` [ceralasertib], the “Circulating CCL2 level” value (plasma cytokines) was “increase”, the “Circulating CCL4 level” value (plasma cytokines) was “decrease” and the “Circulating CCL5 level” value (plasma cytokines) was “decrease”. For the same compound, the IC90 (ATR) was […], the “CIBERSORTx proportion CD8, on-treatment tumor biopsy” value (tumor biopsies; D15 PR) was 0 and the “CIBERSORTx proportion M0 Mac, on-treatment tumor biopsy” value (tumor biopsies; D15 PR) was 0.1391 and 0.5318 and 0.5438. The “CIBERSORTx proportion M1 Mac, on-treatment tumor biopsy” value (tumor biopsies; D15 PR) was 0.1372 and 0 (2×), the “CIBERSORTx proportion M2 Mac, on-treatment tumor biopsy” value (tumor biopsies; D15 PR) was 0.1138 and 0.03909 and 0.06393 and the “CIBERSORTx proportion Naive B, on-treatment tumor biopsy” value (tumor biopsies; D15 PR) was 0.01104 and 0.04034 and 0. The “CIBERSORTx proportion Naive CD4, on-treatment tumor biopsy” value (tumor biopsies; D15 PR) was 0 and 0.0004844 and 0.004743, the “CIBERSORTx proportion Neutrophils, on-treatment tumor biopsy” value (tumor biopsies; D15 PR) was 0.03549 and 0.1415 and 0.09333 and the “CIBERSORTx proportion Treg, on-treatment tumor biopsy” value (tumor biopsies; D15 PR) was 0. For the same compound, the “CIBERSORTx proportion active DC, on-treatment tumor biopsy” value (tumor biopsies; D15 PR) was 0.02084 and 0.01306 and 0.1026, the “CIBERSORTx proportion active NK, on-treatment tumor biopsy” value (tumor biopsies; D15 PR) was 0.09471 and 0 (2×) and the “CIBERSORTx proportion resting DC, on-treatment tumor biopsy” value (tumor biopsies; D15 PR) was 0. For the same compound, the “CIBERSORTx proportion resting NK, on-treatment tumor biopsy” value (tumor biopsies; D15 PR) was 0 and 0.07254 and 0.04433, the “CIBERSORTx proportion CD8, on-treatment tumor biopsy” value (tumor biopsies; D15 non-PR) was 0 (3×) and 0.09128 and the “CIBERSORTx proportion M0 Mac, on-treatment tumor biopsy” value (tumor biopsies; D15 non-PR) was 0.07738 and 0.2479 and 0.5291 and 0.2524. For the same compound, the “CIBERSORTx proportion M1 Mac, on-treatment tumor biopsy” value (tumor biopsies; D15 non-PR) was 0 (2×) and 0.002883 and 0.04168, the “CIBERSORTx proportion M2 Mac, on-treatment tumor biopsy” value (tumor biopsies; D15 non-PR) was 0.325 and 0.00838 and 0.1257 and 0.0276 and the “CIBERSORTx proportion Naive B, on-treatment tumor biopsy” value (tumor biopsies; D15 non-PR) was 0 (2×) and 0.07794 and 0.002559. The “CIBERSORTx proportion Naive CD4, on-treatment tumor biopsy” value (tumor biopsies; D15 non-PR) was 0, the “CIBERSORTx proportion Neutrophils, on-treatment tumor biopsy” value (tumor biopsies; D15 non-PR) was 0 (2×) and 0.09632 and 0.04836 and the “CIBERSORTx proportion Treg, on-treatment tumor biopsy” value (tumor biopsies; D15 non-PR) was 0 (2×) and 0.01681 and 0.03886. For the same compound, the “CIBERSORTx proportion active DC, on-treatment tumor biopsy” value (tumor biopsies; D15 non-PR) was 0.01626 and 0.04266 and 0 (2×), the “CIBERSORTx proportion active NK, on-treatment tumor biopsy” value (tumor biopsies; D15 non-PR) was 0.08744 and 0 (2×) and 0.005269 and the “CIBERSORTx proportion resting DC, on-treatment tumor biopsy” value (tumor biopsies; D15 non-PR) was 0 (3×) and 0.002776. The “CIBERSORTx proportion resting NK, on-treatment tumor biopsy” value (tumor biopsies; D15 non-PR) was 0 and 0.1019 and 0.06313 and 0.04038, the Plasma concentration, individual patients ([1]; 20 mg day 0, 24 h) was 142 ng/mL and 138 ng/mL and 380 ng/mL and the Plasma concentration, individual patients ([1]; 20 mg day 1, 24 h) was 632 ng/mL and 586 ng/mL and 929 ng/mL. The “Plasma concentration, individual patients” value ([1]; 40 mg day 0, 0 h, in ng/mL) was 0, the Plasma concentration, individual patients ([1]; 40 mg day 0, 0.5 h) was 760 ng/mL and 1280 ng/mL and 301 ng/mL and the Plasma concentration, individual patients ([1]; 40 mg day 0, 1 h) was 1150 ng/mL and 2230 ng/mL and 1660 ng/mL. For the same compound, the Plasma concentration, individual patients ([1]; 40 mg day 0, 2 h) was 1660 ng/mL and 1430 ng/mL, the Plasma concentration, individual patients ([1]; 40 mg day 0, 4 h) was 1330 ng/mL and 1170 ng/mL and the Plasma concentration, individual patients ([1]; 40 mg day 0, 8 h) was 894 ng/mL and 668 ng/mL. For the same compound, the Plasma concentration, individual patients ([1]; 40 mg day 0, 24 h) was 226 ng/mL and 224 ng/mL, the Plasma concentration, individual patients ([1]; 40 mg day 1, 0.5 h) was 1850 ng/mL and 634 ng/mL and 1990 ng/mL and the Plasma concentration, individual patients ([1]; 40 mg day 1, 1 h) was 1440 ng/mL and 1570 ng/mL. The Plasma concentration, individual patients ([1]; 40 mg day 1, 2 h) was 2060 ng/mL and 1610 ng/mL, the Plasma concentration, individual patients ([1]; 40 mg day 1, 4 h) was 1500 ng/mL and 1300 ng/mL and the Plasma concentration, individual patients ([1]; 40 mg day 1, 8 h) was 1190 ng/mL and 822 ng/mL.
